PubChem BioAssay (NCI)
“And” between values parts separate entries of the source, which are not always exact repeats. Equal values may be shown once.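 Compound exposure: 48 hours, 5 concentrations, 96-well plates. Abbreviation: GI50, concentration required for 50% inhibition of growth. At the TGI there is no net growth.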

Legend:
Test in all cases: NCI tumour cell line growth inhibition, 48 h
NCI-H522 lung = test system: NCI-H522 lung
LOX IMVI melanoma = test system: LOX IMVI melanoma
KM12 colon = test system: KM12 colon
U251 CNS = test system: U251 CNS
SN12C renal = test system: SN12C renal
NCI-H23 lung = test system: NCI-H23 lung
A498 renal = test system: A498 renal
RXF 393 renal = test system: RXF 393 renal
SNB-19 CNS = test system: SNB-19 CNS
HT29 colon = test system: HT29 colon

Row | Structure (SMILES) | TGI (NCI-H522 lung) | TGI (LOX IMVI melanoma) | TGI (KM12 colon) | TGI (U251 CNS) | TGI (SN12C renal) | TGI (NCI-H23 lung) | TGI (A498 renal) | TGI (RXF 393 renal) | TGI (SNB-19 CNS) | TGI (HT29 colon) | GI50 (NCI-H522 lung) | GI50 (LOX IMVI melanoma) | GI50 (KM12 colon) | GI50 (U251 CNS) [µM] | GI50 (SN12C renal) | GI50 (NCI-H23 lung) | GI50 (A498 renal) | GI50 (RXF 393 renal) | GI50 (SNB-19 CNS) | GI50 (HT29 colon)
1 | O=c1c2cc(Br)ccc2nc(-c2ccccc2Cl)n1NCC1(O)OCC(O)C(O)C1O (centres undefined) | > 100 µM | > 100 µM | > 100 µM | > 100 µM | > 100 µM | > 100 µM | > 100 µM | > 100 µM | > 100 µM | > 100 µM | – | – | – | – | – | – | – | – | – | –
2 | O=C(/C=C/c1cccs1)c1ccc(Nc2nc(Nc3ccc(F)cc3)nc(Nc3ccc(F)cc3)n2)cc1 | 46.4 µM | > 100 µM | 45.2 µM | 35.4 µM | > 100 µM | 71.2 µM | > 100 µM | 75.1 µM | > 100 µM | 70.5 µM | 20.5 µM | 32.1 µM | 16.3 µM | 18.3 | > 100 µM | 24.2 µM | 9.24 µM | 23.3 µM | 34.1 µM | 22.2 µM
3 | O=C1/C(=C/c2ccccc2F)CNC/C1=C\c1ccccc1F | 2.73 µM and 2.8 µM | 1.22 µM and 0.461 µM | 0.519 µM and 0.39 µM | 0.362 µM and 0.372 µM | 2.05 µM and 2.81 µM | 1.81 µM and 3.27 µM | 0.978 µM and 2.98 µM | 1.12 µM and 1.87 µM | 2.66 µM and 3.99 µM | 1.17 µM and 0.543 µM | 0.772 µM and 1.3 µM | 0.318 µM and 0.186 µM | 0.189 µM and 0.197 µM | 0.165 | 0.837 µM and 0.783 µM | 0.693 µM and 0.838 µM | 0.194 µM and 1.52 µM | 0.385 µM and 0.728 µM | 0.643 µM and 1.01 µM | 0.261 µM and 0.242 µM
4 | C/C(=C\c1ccn(-c2ccc(N)c(F)c2)n1)[C@@H]1C[C@@H]2O[C@]2(C)CCC[C@H](C)[C@H](O)[C@@H](C)C(=O)C(C)(C)[C@@H](O)CC(=O)O1 | 0.0321 µM | > 50 µM | > 50 µM | > 50 µM | > 50 µM | > 50 µM | 0.267 µM | 0.109 µM | > 50 µM | > 15.9 µM | 0.00973 µM | 0.0121 µM | 0.00857 µM | < 0.005 | 0.0389 µM | 0.0138 µM | < 0.005 µM | 0.0119 µM | 0.048 µM | 0.00756 µM
5 | Nc1ncnc2c1ncn2CC(O)C(=O)O (centres undefined) | > 100 µM | > 100 µM | > 100 µM | > 100 µM | > 100 µM | > 100 µM | > 100 µM | > 100 µM | > 100 µM | > 100 µM | – | – | – | – | – | – | – | – | – | –
6 | CCCCCCCCCCC(O)[C@H]1CCC(C2CC[C@H]([C@H](O)CCCCCCCCCCC(O)CC3=CC(C)OC3=O)O2)O1 (some centres undefined) | 5.06 µM | 3.09 µM and 2.92 µM | 3.66 µM | > 100 µM | – | 4.03 µM and 7.12 µM | 9.03 µM and 53.2 µM | 5 µM | 6.96 µM and 32.1 µM | 2.88 µM and 14.4 µM | – | 1.18 µM | – | 3.58 | 1.76 µM | < 0.01 µM | 3.15 µM | – | 2.05 µM | –
7 | C[C@H]1[C@H](C)CC[C@]2(C(=O)N3CCN(C)CC3)CC[C@]3(C)C(=CC[C@@H]4[C@@]5(C)C/C(=C/c6cccnc6)C(=O)C(C)(C)[C@@H]5CC[C@]43C)[C@H]12 | 1.3 µM | 2.88 µM | 2.56 µM | 1.87 µM | 2.65 µM | 3.19 µM | 2.92 µM | 2.55 µM | 2.23 µM | 2.67 µM | 0.328 µM | 1.41 µM | 0.976 µM | 0.547 | 1.15 µM | 1.57 µM | 1.52 µM | 1.24 µM | 0.956 µM | 0.926 µM
8 | O=Cc1cn(Cc2cccc(Cl)c2)c2ccccc12 | 45.7 µM | 21 µM | 35.1 µM | 21.8 µM | 23.5 µM | 26.9 µM | 0.299 µM | > 33 µM | 27.3 µM | 32.3 µM | 20.3 µM | 7.4 µM | 14.7 µM | 9.61 | 10.7 µM | 9.33 µM | 0.135 µM | – | 12.9 µM | 13 µM
9 | COc1ccc(C/C(C)=C(\c2ccc(OCCN3CCOCC3)cc2)c2ccc(OC(=O)Cc3ccccc3)cc2)cc1 | 1.08 µM | 1.03 µM | 3.37 µM | 0.965 µM | 1.44 µM | 3.3 µM | 0.971 µM | 0.883 µM | 8.34 µM | 0.716 µM | 0.564 µM | 0.56 µM | 1.14 µM | 0.501 | 0.612 µM | 0.823 µM | 0.462 µM | 0.438 µM | 1.3 µM | 0.288 µM
10 | CC(C)(O)C1CCC(Nc2ccc3ncc(-c4cccc(C(F)(F)F)c4)n3n2)CC1 (centres undefined) | 5.92 µM | 4.23 µM | 11.7 µM | 11.9 µM | 17 µM | 30.2 µM | 4.49 µM | 2.81 µM | 21.8 µM | 12 µM | 1.73 µM | 1.56 µM | 0.132 µM | 2.36 | 3.17 µM | 3.16 µM | 1.48 µM | 1.11 µM | 4.36 µM | 2.23 µM
11 | NC1=C(Br)C(=O)c2ncccc2C1=O | 0.766 µM | 0.655 µM | 2.7 µM | 0.671 µM | 2.1 µM | 0.668 µM | 7.99 µM | 1.32 µM | 2.41 µM | 4.3 µM | – | – | – | – | – | – | – | – | – | –
12 | CC(/C(=N/NC(=O)C(N)=O)c1c(Cl)ccc(Cl)c1O)C1(O)C(=O)Nc2ccccc21 (centres undefined) | 44.6 µM | > 100 µM | > 100 µM | > 100 µM | > 100 µM | > 100 µM | 76.9 µM | > 100 µM | > 100 µM | > 100 µM | – | – | – | – | – | – | – | – | – | –
13 | C=C(C)C(=O)OC1CC2=CC(CC3(C)OC3C3OC(=O)C(=C)C13)OC2=O (centres undefined) | 4.18 µM | 8.99 µM | 32.1 µM | 32.5 µM | 26.8 µM | 30.9 µM | 30.2 µM | 9.37 µM | 33.9 µM | 17.3 µM | – | – | – | – | – | – | – | – | – | –
14 | CC(C)[C@@]12C[C@@H](OC(=O)COC(=O)/C=C/c3ccccc3)[C@@](C)(O1)[C@@H]1CC[C@@H](C)[C@H]1[C@@H]2OC(=O)/C=C/c1ccccc1 | > 100 µM | > 100 µM | > 100 µM | > 100 µM | > 100 µM | > 100 µM | 0.401 µM | > 100 µM | > 100 µM | > 100 µM | > 100 µM | > 100 µM | > 100 µM | > 100 | 1.42 µM | > 100 µM | < 0.0441 µM | 0.618 µM | > 100 µM | > 100 µM
